Results: PubChem BioAssay (NCI)
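96-well plates; 48 h exposure; 5 concentrations. Endpoints by linear interpolation between flanking doses. Not reached: highest tested concentration assigned. TGI marks complete inhibition of growth.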

Columns and labels:
Assay in all cases: NCI anticancer screen, dose series, 48 h
ACHN renal = tested on: ACHN renal
OVCAR-5 ovarian = tested on: OVCAR-5 ovarian
UO-31 renal = tested on: UO-31 renal
PC-3 prostate = tested on: PC-3 prostate
NCI-H226 lung = tested on: NCI-H226 lung
SR leukemia = tested on: SR leukemia
HT29 colon = tested on: HT29 colon
COLO 205 colon = tested on: COLO 205 colon
SN12C renal = tested on: SN12C renal
SF-268 CNS = tested on: SF-268 CNS

SMILES | TGI (ACHN renal) [µM] | TGI (OVCAR-5 ovarian) [µM] | TGI (UO-31 renal) [µM] | TGI (PC-3 prostate) [µM] | TGI (NCI-H226 lung) [µM] | TGI (SR leukemia) [µM] | TGI (HT29 colon) [µM] | TGI (COLO 205 colon) [µM] | TGI (SN12C renal) [µM] | TGI (SF-268 CNS) [µM]
O=C(O)CC(NC(=O)/C(=C/c1ccccc1O)NC(=O)c1ccccc1)C(=O)O (stereo not given) | > 100 | > 100 | > 100 | > 100 | > 100 | > 100 | > 100 | > 100 | > 100 | 
Cc1ccc(S(=O)(=O)NC(=O)NNc2ccc(F)cc2)cc1 | > 100 | > 100 | > 31.6 | > 100 | > 100 |  | > 100 | > 100 | > 100 | > 100
Cc1c(C#N)c(N)n(C2OCC(O)C(O)C2O)c(=S)c1C#N (stereo not given) | > 100 | > 100 | > 100 | > 100 | > 100 | > 100 | > 100 |  | > 100 | > 100
COc1cc(CNc2nc3cc(C(F)(F)F)ccc3nc2-c2ccccc2)cc(OC)c1OC | > 100 |  | > 100 |  | > 100 | > 100 | > 100 | 37.3 | > 100 | > 100
C[C@]1(S(=O)(=O)c2ccccc2)C[C@H]2N(Cc3ccccc3)[C@@H]1CCC21OCCO1 | > 100 | > 100 | > 100 | > 100 |  |  | > 100 | > 100 | > 100 | > 100
CCCCN(CCCC)C(=C(C(Cl)=C(Cl)Cl)[N+](=O)[O-])N(CCCC)CCCC | > 100 | > 100 | > 100 | > 100 | > 100 |  |  | > 100 | > 100 | > 100
COc1ccc2c(c1)CCN=C2c1ccccc1CCCCl | 64.9 | > 100 | 26.7 | > 100 | > 100 |  | 58.2 | 23.4 | 54.4 | > 100
O=C(CCCN1CCC2(CC1)C(=NC1CCCCC1)NC(=O)N2c1ccccc1)c1ccc(F)cc1 | > 100 | 55 |  | 43.3 | 32.3 | 46.1 | 37 | 31.2 | 40.7 | 40.1
O=C(CCc1cccc(O)c1)NCCCNC(=O)CCc1cccc(O)c1 | > 100 | > 100 | > 100 | > 100 |  | > 100 | > 100 | > 100 | > 100 | > 100
COC(=O)C1=C(O)C(C(=O)OC)[C@@]2(O)[C@@H](C(=O)OC)[C@H](C)[C@@H](C)[C@@H]1[C@@H]2C(=O)OC (stereo not given in full) | > 100 | > 100 | > 100 |  | > 100 | > 100 | > 100 |  | > 100 | > 100
CCCOC(=O)NC(C)C(=O)NC(CCC(=O)NC(CCCC(N)C(=O)O)C(=O)NC(C)C(=O)O)C(=O)O (stereo not given) | > 100 | > 100 | > 100 | 53.7 |  | 32.4 | 38.4 | 48.7 | > 100 | 42.3
